The test relates to CEM cells HIV-1 protection, formazan growth assay. Nature of the test: NCI AIDS Antiviral Assay. The conditions noted are these: for IC50: measured here: growth of uninfected CEM cells. In a few lines:
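Human CEM cells, uninfected and HIV-1-infected, received five drug concentrations, and growth was read by soluble formazan assay. Compounds giving at least 50% protection were retested; reproducible 100% protection defined confirmed active.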

Each structure is given as a SMILES string. Activity calls are given as the source filed them.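 How the source made its calls: active means compounds giving half or more protection of infected cells from virus-caused growth loss, again on retest; inactive means the rest.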 A value given as a limit tells only on which side of the number the result lay.

Regarding `CC(C)(O)[C@@H]1CC[C@](C)(C2[C@@H](O)C[C@@]3(C)C4C[C@H](OC5OCC(O)C(O)C5O)[C@H]5C(C)(C)[C@@H](OC6OCC(O)C(O)C6OC6OCC(O)C(O)C6O)CC[C@@]56C[C@@]46CC[C@]23C)O1` (stereo not given in full), the EC50 (as a rule, the midpoint of the concentration-response curve) is > 200 µM and the IC50 (usually the midpoint of a concentration-inhibition curve) is > 200 µM. On to `Cc1[nH]c2c(C)cccc2c1C1Cc2ccccc2N1` (stereo not given), for which the outcome was inactive. For the compound `C=C1C(=O)O[C@H]2[C@H](OC(C)=O)[C@@H](C)CCC/C(C)=C/CC[C@@]3(C)O[C@@H]3C[C@@H]12`, the EC50 was > 126 µM and the IC50 turned out to be 5.62 µM. Taken in the same sequence, the figures for `COc1ccc(N=Nc2ccc3oc(=O)c(C(=O)Nc4ccccc4C)cc3c2)cc1` were > 200 µM and 66.1 µM.

For `CCOC(=O)c1c(N2CCCC2)[nH]c(=O)c(C(c2cccs2)c2c(O)c(C(=O)OCC)c(N3CCCC3)[nH]c2=O)c1O`, the EC50 is > 200 µM and the concentration for half-maximal inhibition (IC50) was found to be 141 µM. Taken in the same sequence, the figures for `CC(=O)CC(=O)ON(C)C(=O)Cc1ccccc1` were > 1000 µM and > 1000 µM. On to `Cn1c[n+](C2OC(CO)C(O)C2O)c2nc([O-])[nH]c(=O)c21` (stereo not given), for which the EC50 was > 17.4 µM and the IC50 was 9.77 µM. The like results for `C[C@@]12C[C@@H](OC(=O)[C@]1(C)O)[C@@H]([C@]1(O)CC[C@H]3[C@@H]4C[C@H]5O[C@]56CC=CC(=O)[C@]6(C)[C@H]4CC[C@@]31C)C2` were, in that order, 0.02 µM and 0.324 µM. Taken in the same sequence, the figures for `CC(=O)C1C(=O)C(=O)N(c2cccc(C)c2C)C1=O` (stereo not given) were > 200 µM and > 200 µM. With `CCN(CC)CP(CN(CC)CC)CN(CC)CC`, the EC50 was > 200 µM and the IC50 was 126 µM. The like results for `N#CC1C(=O)NC(=O)C(C#N)C12CCCc1sccc12` (stereo not given) were, in that order, > 871 µM and 832 µM. With `CC(C)C(/C=C/c1ccccc1)=N\NC(=O)N/N=C(/C=C/c1ccccc1)C(C)C`, the EC50 is > 6.76 µM and the IC50 is > 6.76 µM.

As for `N#CC(C#N)=C1CCCS(=O)(=O)c2ccccc21`, the EC50 is > 200 µM and the IC50 is > 200 µM. For the compound `O=C(/C=C/c1ccc(O)c(O)c1)OC1C[C@@](O)(C(=O)O)C[C@@H](O)[C@H]1OC(=O)/C=C/c1ccc(O)c(O)c1` (stereo not given in full), the EC50 is > 347 µM and the IC50 is 155 µM. Taken in the same sequence, the figures for `O=S(=O)(O)Oc1cc2c(c(OS(=O)(=O)O)c1)C[C@H](OS(=O)(=O)O)[C@@H](c1ccc(OS(=O)(=O)O)c(OS(=O)(=O)O)c1)O2` were 91.2 µM and 174 µM.

In the case of `CC(=O)Oc1c2c(cc3c1C(=O)NC1C3=CC(OC(C)=O)[C@@H](OC(C)=O)[C@H]1OC(C)=O)OCO2` (stereo not given in full), the result was inactive.

Consider `Cc1ccc(S(=O)(=O)ON/N=C2/C3OC3[C@@H]3CCCC[C@H]23)cc1` (stereo not given in full), for which the EC50 is > 389 µM and the IC50 was 195 µM.

`CCOc1ccc2ccccc2c1NC1=NCCO1`: the EC50 is > 200 µM and the half-inhibitory concentration (IC50) worked out at 107 µM. `CC1C2CC(CC(=O)N2)C1(C)C` (stereo not given): the EC50 is > 1480 µM and the IC50 turned out to be 759 µM. Regarding `CC(C)CCCCCCCCCCCCC(=O)NCC(=O)NC1C(O)C(O)C(Nc2ncnc3nc[nH]c23)OC1C(O)CO` (stereo not given), the EC50 is > 0.417 µM and the half-maximal inhibitory concentration (IC50) was 0.00224 µM.

Take `N#CC1C(=O)N(c2ccccc2)NC12OC(=O)c1ccncc12` (stereo not given): the EC50 was > 200 µM and the IC50 was > 200 µM. Turning to `COc1ccc(C[C@H]2C(=O)OC[C@@H]2Cc2ccc(OC)c(OC)c2)cc1`, the EC50 is > 200 µM and the half-inhibitory concentration (IC50) came to 24 µM. Taken in the same sequence, the figures for `CCOC(=O)c1sc(SC)nc1NC(=O)c1ccccc1` were > 200 µM and > 200 µM. `COC(=O)c1ccccc1/C=C1\Cc2cc(C)cc(C)c2C1=O`: the outcome was inactive. For the compound `Nc1ccc(C(=O)N/C(=C\C=C\c2ccco2)c2nc3[nH]c(=S)[nH]c(=O)c3[nH]2)cc1`, the outcome was inactive. Consider `Cn1c(-c2ccc(/C=N/N=C(\N)N/N=C/c3ccc(-c4c[n+]5ccsc5n4C)cc3)cc2)c[n+]2ccsc12`, for which the EC50 was 6.03 µM and the half-inhibitory concentration (IC50) was found to be 120 µM. On to `CCc1cccc(C(C)C)c1NC(=O)C(=O)C1C(=O)NC(=O)NC1=O`, for which the outcome was inactive. Turning to `OC(C#CCN1CCCC1)(c1ccccc1)c1ccc(F)cc1.[C-]#[O+].[C-]#[O+].[C-]#[O+].[C-]#[O+].[C-]#[O+].[C-]#[O+].[Co].[Co]` (stereo not given), the EC50 is > 200 µM and the IC50 amounted to 7.41 µM. The like results for `CC1(C)O[C@@H](CP(c2cccc3ccccc23)c2cccc3ccccc23)[C@H](CP(c2cccc3ccccc23)c2cccc3ccccc23)O1` were, in that order, > 200 µM and > 200 µM. Taken in the same sequence, the figures for `CC(C)(C)OC[C@H](O)CC#N` were > 200 µM and > 200 µM. Regarding `CC(=O)[O-].Cc1ccnc(NS(=O)(=O)c2ccc(N=Cc3ccccc3[O-])cc2)n1.Cc1ccnc(NS(=O)(=O)c2ccc(N=Cc3ccccc3[O-])cc2)n1.[Cu+2]`, the EC50 was > 200 µM and the concentration for half-maximal inhibition (IC50) turned out to be 5.62 µM. Taken in the same sequence, the figures for `S=c1nn[nH]n1-c1ccccc1.[Cd]` were > 42.7 µM and 32.4 µM.

Take `CCOC(=O)C1=CC(C(C)CC(=O)CC(=O)O)CC1` (stereo not given): the outcome was active.

As for `O=NN(CCCl)C(=O)/N=N/C(=O)N(CCCl)N=O`, the EC50 is > 200 µM and the IC50 turned out to be 15.1 µM.

With `CC(=O)OC1C(CNC(=O)N(C)N=O)OC(OC2(CNC(=O)N(C)N=O)OC(CNC(=O)N(C)N=O)C(OC(C)=O)C2OC(C)=O)C(OC(C)=O)C1OC(C)=O` (stereo not given), the EC50 is > 27.5 µM and the IC50 was > 27.5 µM.

For the compound `CN1CC2(c3ccccc3)CN(C)CC(c3ccccc3)(C1)C2=O`, the EC50 is > 112 µM and the IC50 is > 112 µM.

For the compound `Cn1c(=O)c2nsnc2n(C)c1=O`, the EC50 was > 661 µM and the IC50 was > 661 µM. Turning to `CCN(CC)c1ccc(N=Nc2ccc(-c3nc4cccnc4o3)cc2)cc1`, the EC50 was > 19.5 µM and the half-inhibitory concentration (IC50) is > 19.5 µM.

Consider `COc1ccc(OC)c(NC(=O)C(=O)Nn2c(=S)[nH]c3ccccc3c2=O)c1`, for which the EC50 was > 631 µM and the half-inhibitory concentration (IC50) stood at 372 µM. The like results for `CCCCCCCCCCCCC1C(=O)NCCNCCCNCCNC1=O` were, in that order, > 200 µM and 10 µM. Consider `CCOC(=O)C1=C(C)N(NC(N)=O)C(C)(O)C12CCOC2=O` (stereo not given), for which the EC50 is > 794 µM and the half-inhibitory concentration (IC50) was > 794 µM.

Turning to `CCN(CC)CCCNc1nc2ccccc2c2c1ncn2CC(C)C`, the EC50 is > 200 µM and the IC50 is 41.7 µM.

As to `CCCC(O)S(=O)(=O)O` (stereo not given), the EC50 was > 200 µM and the IC50 was > 200 µM. Regarding `Cc1ccc(C(=O)/C=C/c2cccc([N+](=O)[O-])c2)cc1`, the EC50 is > 37.2 µM and the IC50 was > 37.2 µM. On to `CCOC(=O)/C(=C\c1ccc(-c2ccccc2)cc1)C(C)=O`, for which the EC50 is > 45.7 µM and the IC50 is > 45.7 µM. On to `CC1(C)CC(=O)/C(=C/C2CCNC2=S)C(=O)N1` (stereo not given), for which the EC50 was > 501 µM and the half-maximal inhibitory concentration (IC50) is > 501 µM.

Consider `COc1cccc(C2c3cc4c(cc3OC(NNS(=O)(=O)c3ccc(C)cc3)C2C)OCO4)c1O` (stereo not given), for which the EC50 was > 200 µM and the IC50 was determined as 10.5 µM. On to `CN(Cc1cnc2nc(N)nc(N)c2n1)c1ccc(C(=O)NC(CCC(=O)NCC(P(=O)(O)O)P(=O)(O)O)C(=O)O)cc1` (stereo not given), for which the EC50 was > 200 µM and the concentration for half-maximal inhibition (IC50) amounted to 1.23 µM.

These data come from PubChem BioAssay AID179 (DTP/NCI, 2004).
